Literature values in patent US20170176475A1, “NOVEL METHODS AND KITS FOR DETECTING A RIFAMYCIN, OR DERIVATIVE OR ANALOGUE THEREOF” (DREXEL UNIVERSITY, priority 2014, published 2017).

Compound: CO[C@H]1/C=C/O[C@@]2(C)Oc3c(C)c(O)c4c(O)c(c(/C=N/N5CCN(C)CC5)c(O)c4c3C2=O)NC(=O)/C(C)=C\C=C\[C@H](C)[C@H](O)[C@@H](C)[C@@H](O)[C@@H](C)[C@H](OC(C)=O)[C@@H]1C [rifampicin, (7S,9E,11S,12R,13S,14R,15R,16R,17S, 18S,19E,21Z)-2,15,17,27,29-pentahydroxy-11-methoxy-3,7,12,14,16,18,22-heptamethyl-26-{(E)-[(4-methylpiperazin-1-yl)imino]methyl}-6,23-dioxo-8,30-dioxa-24-azatetracyclo [23.3.1.1^4,7.0^5,28]triaconta-1(28),2,4,9,19,21,25(29),26-octaen-13-yl acetate]
- time by which nearly all the drug in the bile is present in the deacetylated form (bile, normal metabolizing patients): ≤ 6 h
- time to peak plasma drug concentrations after intake (orally administered): two to four
